Tested on: mouse lung fibroblasts
Test: FasL-induced cell death of TGF-β1-stimulated mouse lung fibroblasts
Format: cell-based
Conditions: wild-type cells, TGF-β1 stimulation; FasL 200 ng/ml
From the text: FIG. 2. CD148 deficiency in fibroblasts worsens pulmonary fibrosis in bleomycin-treated mice and increases fibroblast activation in response to TGF-β1. CD148 fibroblast-specific knockout mice (Ptprj^fl/fl Col1a2^Cre-ER(T)+/0 were developed as described in Methods. (A) Ptprj^fl/fl Col1a2^Cre-ER(T)+/0 mice or Col1a2^Cre-ER(T)+/0 (wild type) mice were exposed to BLM to induce lung fibrosis. At day 21, mouse lungs were harvested and stained with Masson's trichrome (n=3 for saline and n=5 for BLM groups). (B) Hydroxyproline content was measured in the left lung of Ptprj^fl/fl Col1a2^Cre-ER(T)+/0 mice (n=12) and Col1a2^Cre-ER(T)+/0 (WT) mice (n=12) exposed to BLM, and Ptprj^fl/fl Col1a2^Cre-ER(T)+/0 (n=6) and Col1a2^Cre-ER(T)+/0 (n=6) exposed to saline; at day 21. (C) Relative survival at day 0-21 after BLM. (D-E), α-SMA and CD148 expression in harvested lungs were measured by western blot (n=3-5 for each condition). (F-G) Gene expression of Fn and Col1a1, and Ctgf in harvested lungs was measured using qPCR (n=5 for each condition). […] (I) mRNA levels of Col1a1 and Fn were measured by qPCR (n=5 for each condition). […] Gel contractility was measured at 0, 12 and 24 h after TGF-β1 (10 ng/ml) stimulation (n=6 for each condition). […] At 24 h, cell viability was measured with MTT assay (n=5 for each condition). […]

With TGF-β1 the “FasL-induced cell death and apoptosis” value was “induced resistance”.

Source: patent publication US20260297164A1, “ANTI-FIBROTIC PEPTIDES AND USES THEREOF” (Deackt, Inc., priority 2021, published 2026)
